pIC50, pKi: −log10 of the molar value.
Columns and labels:
[1] = target: T1, Amine oxidase [flavin-containing] B (Homo sapiens, UniProt P27338); experiment: biochemical; type: cell-based, BTI
T1 sequence (P27338 whole entry): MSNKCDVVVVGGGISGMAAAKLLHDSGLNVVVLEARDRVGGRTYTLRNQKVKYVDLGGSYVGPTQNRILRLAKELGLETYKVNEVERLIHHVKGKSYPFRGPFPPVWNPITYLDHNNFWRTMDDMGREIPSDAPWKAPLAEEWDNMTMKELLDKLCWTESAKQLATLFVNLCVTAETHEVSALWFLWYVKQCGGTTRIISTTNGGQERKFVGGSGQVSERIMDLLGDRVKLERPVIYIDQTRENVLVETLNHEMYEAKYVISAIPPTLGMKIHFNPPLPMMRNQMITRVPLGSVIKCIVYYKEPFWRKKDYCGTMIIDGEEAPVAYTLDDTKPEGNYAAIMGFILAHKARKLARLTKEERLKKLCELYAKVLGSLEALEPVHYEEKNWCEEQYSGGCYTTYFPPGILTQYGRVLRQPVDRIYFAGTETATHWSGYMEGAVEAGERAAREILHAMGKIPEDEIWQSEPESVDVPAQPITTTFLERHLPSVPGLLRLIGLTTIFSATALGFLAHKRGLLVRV
Description: Inhibition of recombinant human MAO-B expressed in baculovirus infected BTI cells using p-tyramine as substrate by fluorometric assay

MAO-A [2] = target: T2, MAO-A (Homo sapiens, UniProt P21397); experiment: Inhibition of recombinant human MAO-A expressed in baculovirus infected BTI cells at 10 uM using p-tyramine as substrate by fluorometric assay relative to control; conditions: probe p-tyramine
T2 sequence (P21397 whole entry): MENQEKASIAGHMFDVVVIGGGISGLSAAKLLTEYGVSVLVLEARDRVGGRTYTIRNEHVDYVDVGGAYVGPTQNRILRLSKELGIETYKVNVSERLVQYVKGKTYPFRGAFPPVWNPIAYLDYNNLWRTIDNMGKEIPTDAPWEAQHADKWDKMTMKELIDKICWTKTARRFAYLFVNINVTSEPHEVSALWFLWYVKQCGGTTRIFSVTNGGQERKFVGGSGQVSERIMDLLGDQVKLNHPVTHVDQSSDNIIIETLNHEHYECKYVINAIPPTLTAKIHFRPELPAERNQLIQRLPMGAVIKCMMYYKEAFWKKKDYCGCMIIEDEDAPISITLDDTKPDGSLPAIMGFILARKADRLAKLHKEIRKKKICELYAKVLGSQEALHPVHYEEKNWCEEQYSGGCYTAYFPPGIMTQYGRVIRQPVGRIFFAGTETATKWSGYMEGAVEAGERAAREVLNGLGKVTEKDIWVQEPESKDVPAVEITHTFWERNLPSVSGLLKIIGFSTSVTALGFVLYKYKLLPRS

Acetylcholinesterase [3] = target: T3, Acetylcholinesterase (Electrophorus electricus, UniProt O42275)
Description: Inhibition of Electric eel AChE using ATCI as substrate incubated for 5 mins followed by substrate addition and measured after 5 mins by spectrophotometric based Ellman's method

Cholinesterase = Cholinesterase (Equus caballus, UniProt P81908)
Description: Inhibition of equine serum BChE using BTCI as substrate incubated for 5 mins followed by substrate addition and measured after 5 mins by spectrophotometric based Ellman's method

MAO-A [4] = target: T2, MAO-A; experiment: in vitro; conditions: probe p-tyramine
Description: Inhibition of recombinant human MAO-A expressed in baculovirus infected BTI cells at 1 uM using p-tyramine as substrate by fluorometric assay relative to control

Histamine H3 receptor = Histamine H3 receptor (Homo sapiens, UniProt Q9Y5N1); experiment: biochemical
Description: Displacement of [3H]N-alpha-methylhistamine from recombinant human histamine H3 receptor expressed in CHO-K1 cells by microbeta scintillation analysis

Acetylcholinesterase [5] = target: T3, Acetylcholinesterase; experiment: Inhibition of Electric eel AChE using ATCI as substrate preincubated with enzyme for 60 mins followed by substrate addition and measured for 120 secs by spectrophotometric based Ellman's method

Sequence of Histamine H3 receptor (Q9Y5N1 whole entry): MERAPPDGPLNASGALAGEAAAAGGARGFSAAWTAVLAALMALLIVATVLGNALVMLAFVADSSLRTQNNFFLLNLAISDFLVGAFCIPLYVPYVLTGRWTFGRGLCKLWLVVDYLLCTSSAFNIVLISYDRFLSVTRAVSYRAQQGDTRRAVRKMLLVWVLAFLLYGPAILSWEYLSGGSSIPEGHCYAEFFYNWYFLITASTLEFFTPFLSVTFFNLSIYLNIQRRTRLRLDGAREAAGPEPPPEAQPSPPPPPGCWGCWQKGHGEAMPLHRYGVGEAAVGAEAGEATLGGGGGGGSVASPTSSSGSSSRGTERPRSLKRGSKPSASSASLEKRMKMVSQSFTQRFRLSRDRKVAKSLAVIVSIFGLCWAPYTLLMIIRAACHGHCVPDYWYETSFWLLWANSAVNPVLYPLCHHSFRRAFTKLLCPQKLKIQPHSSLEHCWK
Sequence of Cholinesterase (P81908 whole entry): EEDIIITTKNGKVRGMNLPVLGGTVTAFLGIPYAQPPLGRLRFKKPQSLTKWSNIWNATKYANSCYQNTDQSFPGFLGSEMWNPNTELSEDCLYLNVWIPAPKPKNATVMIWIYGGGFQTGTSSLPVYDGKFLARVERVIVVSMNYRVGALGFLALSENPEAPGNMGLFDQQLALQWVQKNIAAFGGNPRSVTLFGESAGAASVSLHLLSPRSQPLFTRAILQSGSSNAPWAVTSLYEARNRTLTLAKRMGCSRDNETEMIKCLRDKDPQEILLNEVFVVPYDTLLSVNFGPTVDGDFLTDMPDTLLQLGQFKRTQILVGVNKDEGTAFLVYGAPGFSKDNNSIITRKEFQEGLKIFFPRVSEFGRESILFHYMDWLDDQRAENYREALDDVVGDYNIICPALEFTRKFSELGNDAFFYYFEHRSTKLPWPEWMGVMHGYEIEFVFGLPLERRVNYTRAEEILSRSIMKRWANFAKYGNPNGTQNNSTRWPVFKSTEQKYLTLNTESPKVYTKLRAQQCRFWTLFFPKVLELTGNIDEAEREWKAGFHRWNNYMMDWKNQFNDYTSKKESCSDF
T3 sequence (O42275 whole entry): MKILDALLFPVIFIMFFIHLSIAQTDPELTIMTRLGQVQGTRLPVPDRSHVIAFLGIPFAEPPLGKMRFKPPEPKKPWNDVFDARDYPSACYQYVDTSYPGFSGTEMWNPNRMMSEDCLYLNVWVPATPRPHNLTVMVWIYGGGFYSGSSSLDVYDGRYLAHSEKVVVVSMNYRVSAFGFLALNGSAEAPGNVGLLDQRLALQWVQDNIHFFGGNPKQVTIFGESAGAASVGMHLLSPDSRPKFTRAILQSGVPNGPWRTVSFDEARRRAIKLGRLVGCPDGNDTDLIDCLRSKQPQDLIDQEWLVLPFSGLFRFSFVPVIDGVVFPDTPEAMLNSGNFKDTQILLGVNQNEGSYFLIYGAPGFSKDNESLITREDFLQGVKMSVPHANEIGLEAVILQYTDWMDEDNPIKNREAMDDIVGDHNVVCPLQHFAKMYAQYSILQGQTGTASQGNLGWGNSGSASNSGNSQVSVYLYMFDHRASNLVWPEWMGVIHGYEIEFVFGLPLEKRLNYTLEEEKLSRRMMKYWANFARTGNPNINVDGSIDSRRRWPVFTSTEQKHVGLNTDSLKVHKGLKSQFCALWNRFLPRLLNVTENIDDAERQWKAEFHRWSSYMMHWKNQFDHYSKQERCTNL

## O=c1c2cc(Cl)ccc2oc2ccc(OCCCCCN3CCCCC3)cc12
[1]
  pIC50: 6.12
MAO-A [2]
  inhibition at 10 µM: < 50%
Acetylcholinesterase [3]
  pIC50: 6.62
Cholinesterase
  pIC50: 6.01
MAO-A [4]
  inhibition at 1 µM: 5%
Histamine H3 receptor
  pKi: 6.82

## CC1CCCN(CCCCCOc2ccc3oc4cc(Cl)ccc4c(=O)c3c2)C1 (stereo not drawn)
[1]
  pIC50: 5.70
MAO-A [2]
  inhibition at 10 µM: < 50%
Acetylcholinesterase [3]
  pIC50: 6.45
Cholinesterase
  pIC50: 5.55
MAO-A [4]
  inhibition at 1 µM: 11%
Histamine H3 receptor
  pKi: 7.25

## O=c1c2ccccc2oc2cc(OCCCCCN3CCCCC3)cc(O)c12
Acetylcholinesterase [5]
  pIC50: 6.34

## CC1CCCN(CCCCCOc2ccc3oc4ccc(Cl)cc4c(=O)c3c2)C1 (stereo not drawn)
[1]
  pIC50: 6.18
MAO-A [2]
  inhibition at 10 µM: < 50%
Acetylcholinesterase [3]
  pIC50: 6.16
Cholinesterase
  pIC50: 6.16
MAO-A [4]
  inhibition at 1 µM: 2%
Histamine H3 receptor
  pKi: 6.83

## O=c1c2cc(Cl)ccc2oc2ccc(OCCCCCCN3CCCCC3)cc12
[1]
  pIC50: 5.74
MAO-A [2]
  inhibition at 10 µM: < 50%
Acetylcholinesterase [3]
  pIC50: 6.21
Cholinesterase
  pIC50: 6.02
MAO-A [4]
  inhibition at 1 µM: 8%
Histamine H3 receptor
  pKi: 6.55

## O=c1c2ccc(Cl)cc2oc2ccc(OCCCCCCN3CCCCCC3)cc12
[1]
  pIC50: 6.01
MAO-A [2]
  inhibition at 10 µM: < 50%
Acetylcholinesterase [3]
  pIC50: 6.63
Cholinesterase
  pIC50: 5.91
MAO-A [4]
  inhibition at 1 µM: 5%
Histamine H3 receptor
  pKi: 6.22

## CC1CCN(CCCCCCOc2ccc3oc4cc(Cl)ccc4c(=O)c3c2)CC1
[1]
  pIC50: 5.78
MAO-A [2]
  inhibition at 10 µM: < 50%
Acetylcholinesterase [3]
  pIC50: 6.25
Cholinesterase
  pIC50: 5.82
MAO-A [4]
  inhibition at 1 µM: 37%
Histamine H3 receptor
  pKi: 6.28

## O=c1c2ccccc2oc2ccc(OCCCCCN3CCCCC3)cc12
[1]
  pIC50: 5.82
MAO-A [2]
  inhibition at 10 µM: < 50%
Acetylcholinesterase [3]
  pIC50: 6.21
Cholinesterase
  pIC50: 5.60
MAO-A [4]
  inhibition at 1 µM: 6%
Histamine H3 receptor
  pKi: 6.76

## O=c1c2cc(Cl)ccc2oc2ccc(OCCCCCCN3CCCCCC3)cc12
[1]
  pIC50: 5.86
MAO-A [2]
  inhibition at 10 µM: < 50%
Acetylcholinesterase [3]
  pIC50: 6.57
Cholinesterase
  pIC50: 6.26
MAO-A [4]
  inhibition at 1 µM: 23%
Histamine H3 receptor
  pKi: 6.62

## O=c1c2ccccc2oc2ccc(OCCCCCCN3CCCCC3)cc12
[1]
  pIC50: 6.03
MAO-A [2]
  inhibition at 10 µM: < 50%
Acetylcholinesterase [3]
  pIC50: 6.45
Cholinesterase
  pIC50: 5.70
MAO-A [4]
  inhibition at 1 µM: 4%
Histamine H3 receptor
  pKi: 5.97

## O=c1c2ccc(Cl)cc2oc2ccc(OCCCCCN3CCCCCC3)cc12
[1]
  pIC50: 5.68
MAO-A [2]
  inhibition at 10 µM: < 50%
Acetylcholinesterase [3]
  pIC50: 6.50
Cholinesterase
  pIC50: 5.89
MAO-A [4]
  inhibition at 1 µM: 2%
Histamine H3 receptor
  pKi: 7.07

## CC1CCN(CCCCCCOc2ccc3oc4ccc(Cl)cc4c(=O)c3c2)CC1
[1]
  pIC50: 6.14
MAO-A [2]
  inhibition at 10 µM: < 50%
Acetylcholinesterase [3]
  pIC50: 6.28
Cholinesterase
  pIC50: 6.05
MAO-A [4]
  inhibition at 1 µM: 28%
Histamine H3 receptor
  pKi: 6.33

## CC1CCN(CCCCCOc2ccc3oc4ccc(Cl)cc4c(=O)c3c2)CC1
[1]
  pIC50: 6.17
MAO-A [2]
  inhibition at 10 µM: < 50%
Acetylcholinesterase [3]
  pIC50: 6.41
Cholinesterase
  pIC50: 5.96
MAO-A [4]
  inhibition at 1 µM: 5%
Histamine H3 receptor
  pKi: 6.85

— ChEMBL document CHEMBL4706551, “Rational design of new multitarget histamine H receptor ligands as potential candidates for treatment of Alzheimer's disease” (Eur J Med Chem, 2020)
